EC50 data for 38 molecules are collected here from US20260042769A1, “TRIARYL AGONISTS OF ALPHA-2 ADRENERGIC RECEPTORS” (ALCEPTOR THERAPEUTICS, INC., priority 2023, published 2026).

Each structure is given as a SMILES string.

For one assay, the target named is T1, human ADRA2B receptor (Homo sapiens, UniProt P18089).
T1 construct: expressed in transfected cells
T1 sequence (P18089 1-450): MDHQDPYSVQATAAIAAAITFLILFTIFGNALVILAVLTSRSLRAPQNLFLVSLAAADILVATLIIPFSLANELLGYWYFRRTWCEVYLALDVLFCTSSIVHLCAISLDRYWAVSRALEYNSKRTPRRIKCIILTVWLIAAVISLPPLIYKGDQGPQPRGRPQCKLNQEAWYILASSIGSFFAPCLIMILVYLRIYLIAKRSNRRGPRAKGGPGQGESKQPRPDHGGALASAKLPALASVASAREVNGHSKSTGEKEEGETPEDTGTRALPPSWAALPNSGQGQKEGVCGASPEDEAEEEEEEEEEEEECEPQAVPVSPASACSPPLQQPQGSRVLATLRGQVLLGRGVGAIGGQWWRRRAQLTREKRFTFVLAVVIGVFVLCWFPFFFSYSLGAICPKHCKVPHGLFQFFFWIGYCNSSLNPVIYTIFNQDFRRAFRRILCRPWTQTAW
Briefly: ADRA2B arrestin agonist assay. Format: cell-based. As to conditions: CHO-K1 cells stably expressing human ADRA2B; read-out: Beta-Arrestin - Human Alpha2B EC50. As for the experimental part:
ADRA2A and ADRA2B Arrestin Agonist Assay Method
The arrestin assay uses frozen CHO-K1 cell lines stably expressing human ADRA2A and ADRA2B receptors. Cells are frozen following normal cell freezing protocols. Briefly, cells are washed with PBS and then dissociated with 0.25% trypsin. Dissociated cells are quenched in full media and then collected by centrifugation at 290×g for 5 minutes. […] Cells are stored at −80° C. (or in liquid N2 if stored >6 months) until the day of the assay.
On the day before the assay, frozen cells are thawed in a 37° C. water bath, brought up in 20 mL of full media, and collected via centrifugation at 290×g for 5 minutes. […] Cells are incubated overnight in a 37° C., 5% CO2 cell incubator.
On the day of the assay, agonists are diluted in Opti-MEM to 3.5x of the final assay concentration. 4 μL of agonists are added to the cells and incubated for 2 hours at 37° C. in a 5% CO2 cell incubator. 6 μL of arrestin detection reagents are dispensed onto the cells and the plates are incubated for 2 hours at room temperature. […] Plates are read on an Envision luminescence plate reader.
The term EC50 denotes the concentration at which the effect is half-maximal. As for `Cc1cccc(C(Cc2ncnc3[nH]ccc23)c2c[nH]cn2)c1C` (centres unmarked) [Compound 286, 4-[2-(4-imidazolyl)-2-(2,3-xylyl)ethyl]-1H-1,5,7-triazaindene], the EC50 was under 10 nM.

Take `Cc1nccc(C[C@H](c2c[nH]cn2)c2cccc3c2OCCCO3)n1` [Compound 352, 4-[(S)-2-(3,4-dihydro-2H-1,5-benzodioxepin-6-yl)-2-(4-imidazolyl)ethyl]-2-methylpyrimidine]: the EC50 was over 500 nM.

In the case of `Cc1cccc([C@H](Cc2ccn(C(F)F)n2)c2c[nH]cn2)c1C` [Compound 280, 3-[(S)-2-(4-imidazolyl)-2-(2,3-xylyl)ethyl]-1-(difluoromethyl)pyrazole], the EC50 is under 10 nM.

In the case of `Cc1cccc([C@H](Cc2cn(C)nn2)c2c[nH]cn2)c1F` [Compound 250, 4-[(S)-2-(2-fluoro-3-tolyl)-2-(4-imidazolyl)ethyl]-1-methyl-1H-1,2,3-triazole], the EC50 is over 500 nM.

Take `Cc1cc(CC(c2c[nH]cn2)c2cccc(C)c2C)ccn1` (centres unmarked) [Compound 255, 4-[2-(2-methyl-4-pyridyl)-1-(2,3-xylyl)ethyl]imidazole]: the EC50 is under 10 nM.

As to `c1cc2c(c([C@H](Cc3cc[nH]n3)c3c[nH]cn3)c1)OCC2` [Compound 238, 3-[(S)-2-(2,3-dihydro-1-benzofuran-7-yl)-2-(4-imidazolyl)ethyl]pyrazole], the EC50 was in the range of 10 to 50 nM.

Turning to `COc1cc(Cl)cc(CC(c2c[nH]cn2)c2cccc3c2OCC3)n1` (centres unmarked) [Compound 393, 4-[2-(4-chloro-6-methoxy-2-pyridyl)-1-(2,3-dihydro-1-benzofuran-7-yl)ethyl]imidazole], the EC50 fell in the range of 10 to 50 nM.

As for `Cc1nccc(CC(c2c[nH]cn2)c2cccc3cccnc23)n1` (centres unmarked) [Compound 341, 4-[2-(4-imidazolyl)-2-(8-quinolyl)ethyl]-2-methylpyrimidine], the EC50 is under 10 nM.

With `COCc1nccc(CC(c2c[nH]cn2)c2cccc(C)c2C)n1` (centres unmarked) [Compound 176, 4-[2-(4-imidazolyl)-2-(2,3-xylyl)ethyl]-2-(methoxymethyl) pyrimidine], the EC50 was under 10 nM.

For `Cn1cc(CC(c2c[nH]cn2)c2cccc3c2OCC3)nn1` (centres unmarked) [Compound 258, 4-[2-(2,3-dihydro-1-benzofuran-7-yl)-2-(4-imidazolyl)ethyl] 1-methyl-1H-1,2,3-triazole], the EC50 lay within 10 to 50 nM.

On to `COc1nccc(CC(c2c[nH]cn2)c2cccc(Cl)c2F)n1` (centres unmarked) [Compound 190, 4-[2-(3-chloro-2-fluorophenyl)-2-(4-imidazolyl)ethyl]-2-methoxypyrimidine], for which the 50% effective concentration (EC50) fell in the range of 10 to 50 nM.

Consider `Cc1cc(CC(c2c[nH]cn2)c2cccc(C)c2C)nc(C(C)(C)O)n1` (centres unmarked) [Compound 207, 2-{4-[2-(4-imidazolyl)-2-(2,3-xylyl)ethyl]-6-methyl 2-pyrimidinyl}-2-propanol], for which the concentration for a half-maximal effect (EC50) is under 10 nM.

`Cc1cccc(C(Cc2cccnc2C)c2c[nH]cn2)c1C` (centres unmarked) [Compound 254, 4-[2-(2-methyl-3-pyridyl)-1-(2,3-xylyl)ethyl]imidazole]: the EC50 was 10 to 50 nM.

On to `Cc1cccc([C@@H](Cc2ccnc(CF)n2)c2c[nH]cn2)c1C` [Compound 153, 4-[(R)-2-(4-imidazolyl)-2-(2,3-xylyl)ethyl]-2-(fluoromethyl) pyrimidine], for which the EC50 is under 10 nM.

Turning to `COc1cccc(C(Cc2cccnn2)c2c[nH]cn2)c1C` (centres unmarked) [Compound 140, 3-[2-(4-imidazolyl)-2 (3-methoxy-2-tolyl)ethyl]pyridazine], the EC50 was over 500 nM.

As for `COc1ncc(CC(c2c[nH]cn2)c2cccc(C)c2C)cn1` (centres unmarked) [Compound 339, 5-[2-(4-imidazolyl)-2-(2,3-xylyl)ethyl]-2-methoxypyrimidine], the EC50 lay in the range of 50 to 500 nM.

`Cn1ncc2c(C(Cc3cccc(CO)n3)c3c[nH]cn3)cccc21` (centres unmarked) [Compound 301, {6-[2-(4-imidazolyl)-2-(1-methyl-1H-indazol-4-yl)ethyl]-2-pyridyl}methanol]: the EC50 was 10 to 50 nM.

Consider `Cn1ncc2c(C(Cc3cocn3)c3c[nH]cn3)cccc21` (centres unmarked) [Compound 378, 4-[1-(4-imidazolyl)-2-(1,3-oxazol-4-yl)ethyl]-1-methyl-1H-indazole], for which the concentration giving a half-maximal response (EC50) was 50 to 500 nM.

Take `Cc1cccc(C(Cc2ccc(F)c(CO)n2)c2c[nH]cn2)c1C` (centres unmarked) [Compound 318, {3-fluoro-6-[2-(4-imidazolyl)-2-(2,3-xylyl)ethyl]-2-pyridyl}methanol]: the EC50 is under 10 nM.

Take `Cc1cccc(C(Cc2ccnc(F)c2)c2c[nH]cn2)c1F` (centres unmarked) [Compound 321, 4-[2-(2-fluoro-4-pyridyl)-1-(2-fluoro-3-tolyl)ethyl]imidazole]: the EC50 is under 10 nM.

As to `Cc1cccc([C@H](Cc2ccnn2C(F)F)c2c[nH]cn2)c1C` [Compound 281, 5-[(S)-2-(4-imidazolyl)-2-(2,3-xylyl)ethyl]-1-(difluoromethyl)pyrazole], the EC50 was under 10 nM.

Take `Cc1nc(C[C@H](c2c[nH]cn2)c2cccc(C)c2C)c(C)o1` [Compound 380, 4-[(S)-2-(4-imidazolyl)-2-(2,3-xylyl)ethyl]-2,5-dimethyl-1,3-oxazole]: the EC50 was over 500 nM.

On to `Cc1nccc(CC(c2c[nH]cn2)c2cccc3c2OCCO3)n1` (centres unmarked) [Compound 343, 4-[2-(2,3-dihydro-1,4-benzodioxin-5-yl)-2-(4-imidazolyl)ethyl]-2-methylpyrimidine], for which the 50% effective concentration (EC50) was under 10 nM.

As for `COc1c(C)cccc1[C@@H](Cc1ccnn1C)c1c[nH]cn1` [Compound 381, 5-[(R)-2-(4-imidazolyl)-2-(2-methoxy-3-tolyl)ethyl]-1-methylpyrazole], the EC50 is over 500 nM.

For `Cn1nc2ccccc2c1CC(c1c[nH]cn1)c1cccc2c1OCC2` (centres unmarked) [Compound 308, 3-[2-(2,3-dihydro-1-benzofuran-7-yl)-2-(4-imidazolyl)ethyl]-2-methyl-2H-indazole], the EC50 fell in the range of 10 to 50 nM.

Take `Cc1cc(CC(c2c[nH]cn2)c2cccc(C)c2C)c(Cl)cn1` (centres unmarked) [Compound 395, 4-[2-(5-chloro-2-methyl-4-pyridyl)-1-(2,3-xylyl)ethyl]imidazole]: the EC50 is under 10 nM.

`Cc1cccc(C(Cc2cnc3n[nH]cc3c2)c2c[nH]cn2)c1C` (centres unmarked) [Compound 287, 5-[2-(4-imidazolyl)-2-(2,3-xylyl)ethyl]-2H-1,2,7-triazaindene-formic acid (1/1)]: the EC50 was under 10 nM.

In the case of `Cc1cccc(C(Cc2ccc(C(=O)N(C)C)nc2)c2c[nH]cn2)c1C` (centres unmarked) [Compound 311, N,N-dimethyl-5-[2-(4-imidazolyl)-2-(2,3-xylyl)ethyl]-2-pyridinecarboxamide], the EC50 was under 10 nM.

On to `CN1CCc2cccc(C(Cc3cn(C)nn3)c3c[nH]cn3)c21` (centres unmarked) [Compound 387, 4-[2-(4-imidazolyl)-2-(1-methyl-7-indolinyl)ethyl]-1-methyl-1H-1,2,3-triazole], for which the concentration for a half-maximal effect (EC50) was in the range of 50 to 500 nM.

Regarding `COc1nccc(CC(c2c[nH]cn2)c2cccc(F)c2C)n1` (centres unmarked) [Compound 154, 4-[2-(3-fluoro-2-tolyl)-2-(4-imidazolyl)ethyl]-2-methoxypyrimidine], the EC50 was 10 to 50 nM.

On to `Cc1cccc(C(Cc2cocn2)c2c[nH]cn2)c1F` (centres unmarked) [Compound 368, 4-[2-(2-fluoro-3-tolyl)-2-(4-imidazolyl)ethyl]-1,3-oxazole], for which the EC50 was 50 to 500 nM.

On to `Cc1cccc(C(Cc2cncnc2C)c2c[nH]cn2)c1C` (centres unmarked) [Compound 256, 5-[2-(4-imidazolyl)-2-(2,3-xylyl)ethyl]-4-methylpyrimidine], for which the EC50 was in the range of 50 to 500 nM.

Take `Cc1cccc([C@@H](Cc2cccc(CO)n2)c2c[nH]cn2)c1C` [Compound 146, {6-[(R)-2-(4-imidazolyl)-2-(2,3-xylyl)ethyl]-2-pyridyl}methanol]: the EC50 was under 10 nM.

For `Cn1nccc1CC(c1c[nH]cn1)c1cccc2c1cnn2C` (centres unmarked) [Compound 269, 4-[1-(4-imidazolyl)-2-(1-methyl-5-pyrazolyl)ethyl]-1-methyl-1H-indazole], the EC50 is 50 to 500 nM.

Take `Cc1cc(C[C@@H](c2c[nH]cn2)c2cccc(C)c2F)ncn1` [Compound 143, 4-[(R)-2-(2-fluoro-3-tolyl)-2-(4-imidazolyl)ethyl]-6-methylpyrimidine]: the EC50 is under 10 nM.

On to `Cc1nc(C[C@@H](c2c[nH]cn2)c2cccc(C)c2C)c(C)o1` [Compound 379, 4-[(R)-2-(4-imidazolyl)-2-(2,3-xylyl)ethyl]-2,5-dimethyl-1,3-oxazole], for which the EC50 is under 10 nM.

Regarding `COc1c(C)cccc1C(Cc1cnco1)c1c[nH]cn1` (centres unmarked) [Compound 375, 5-[2-(4-imidazolyl)-2-(2-methoxy-3-tolyl)ethyl]-1,3-oxazole], the EC50 lay in the range of 50 to 500 nM.

Still in this assay, the particulars now being: read-out: Beta-Arrestin - Human Alpha2B EC50.
`Cc1cccc([C@@H](Cc2ccncc2)c2c[nH]cn2)c1C` [Compound 320, 4-[(R)-2-(4-pyridyl)-1-(2,3-xylyl)ethyl]imidazole]: the EC50 is over 500 nM.
